# Data from patent US7875638B2, “Synthesis of epothilones, intermediates thereto, analogues and uses thereof” (Sloan-Kettering Institute for Cancer Research, priority 2002, dated 2011).
# Where two headings read alike, the source gives them in different places.
# How the values were obtained:
# Solubility in water = conditions: for solubility: water
# in vitro [1] = conditions: mouse
# Method: (§1) Stability of epothilones in mouse and in human liver S9 fraction. The stability study was carried out with a fully automated HPLC system which consisted of a Prospekt-2 (Spark Holland, Netherlands) sample preparation system and an Agilent 1100 HPLC system. Briefly, the Prospekt 2 picked up a C8 extraction cartridge and washed it with acetonitrile and water. The Agilent autosampler, set at 37° C., picked up 20 μl of the sample, loaded it onto the cartridge, washed it with water, then the Prospekt-2 diverted the mobile phase stream through the extraction cartridge onto the analytical column, Reliance Stable Bond C8 4×80 mm with guard column (MacMod, Chadds Ford, Pa.) and the eluent was monitored at 250 nm. […] Sample preparation involved the addition of equal volumes of plasma to PBS for a total volume of 300-400 μl, filtered, and the addition of 0.5-2 μl of the substrate (20 mM) to achieve about 30-50 mAU at 250 nm in the HPLC analysis. For pooled human liver microsome S9 fraction (Xeno Tech, Lenex, Kans.), 20 μl (400 μg) or S9 fraction was mixed with 280 μl of PBS then proceeded as above. The sampling period was controlled by the autosampler and peak area data were collected to compare the rate of disappearance of the parent compound.
# (§2) Stability of epothilones in mouse and in human liver S9 fraction: The stability study was carried out with a fully automated HPLC system which consisted of a Prospekt-2 (Spark Holland, Netherlands) sample preparation system and an Agilent 1100 HPLC system. Briefly, the Prospekt 2 picked up a C8 extraction cartridge and washed it with acetonitrile and water. The Agilent autosampler, set at 37° C., picked up 20 μl of the sample, loaded it onto the cartridge, washed it with water, then the Prospekt-2 diverted the mobile phase stream through the extraction cartridge onto the analytical column, Reliance Stable Bond C8 4×80 mm with guard column (MacMod, Chadds Ford, Pa.) and the eluent was monitored at 250 nm. […] Sample preparation involves the addition of equal volumes of plasma to PBS for a total volume of 400 μl, filtered, and the addition of 0.5-2 μl of the substrate (20 mM) to achieve about 30-50 mAU at 250 nm in the HPLC analysis. For pooled human liver microsome S9 fraction (Xeno Tech, Lenex, Kans.), 20 μl (400 μg) or S9 fraction was mixed with 280 μl of PBS then proceeds as above. The sampling period was controlled by the autosampler and peak area data were collected to compare the rate of disappearance of the parent compound.
# [2] = test system: human mammary carcinoma MX-1 xenograft; test: MX-1 xenograft in nude mice; conditions: mouse, in vivo
# CCRF-CEM/Taxol = assay type: cell-based, human; conditions: Homo sapiens, CCRF-CEM, XTT assay following 72 h inhibition
# CCRF-CEM [3] = conditions: for Potency compared with EpoB (51): sensitive and resistant cell lines
# Method: (§3) Cytotoxicity Assays. In preparation for in vitro cytotoxicity assays, cells were cultured at an initial density 2-5×10^4 cells per milliliter. […] For both methods, the absorbance of each well was measured with a microplate reader (Power Wave XS, Bio-Tek, Winooski, Vt.).
# (§4) A typical experiment involves culturing cells (e.g., CCRF-CEM) at an initial density of 2-5×10^4 cells per ml. […] For cells that were grown in suspension (such as CCRF-CEM and its sublines), cytotoxicitiy is measured by using the 2,-3-bis(2-methoxy-4-nitro-5-sulfophenyl)-5 carboxanilide)-2H terazodium hydroxide (XTT)-microculture tetrazonium method in duplicate in 96-well microtiter plates. For both methods, the absorbance of each well is measured with a microplate reader (EL-340, Bio-Tek, Burlington, Vt.). Each run entails six or seven concentrations of the tested drugs. Dose-effect relationship data are analyzed with the median-effect plot.
# (§5) Cytotoxicity Assays: In preparation for in vitro cytotoxicity assays, cells were cultured at an initial density 2-5×10^4 cells per milliliter. […] For both methods, the absorbance of each well was measured with a microplate reader (Power Wave XS, Bio-Tek, Winooski, Vt.).
# [4] = test system: human mammary carcinoma MX-1 xenograft
# in vitro [5] = conditions: human
# Method: as §1, §2
# [6] = test system: human xenografts in nude mice, such as MX-1; parameters: Relative therapuetic index at MTD: key to the marks not given beside the values
# [7] = Octanol-water partition (POW) number by HPLC; assay type: physicochemical; conditions: HPLC estimate, pH 7.4 buffer; read-out: Lipophilicity octanol/water partition (POW)
# Method: Determination of partition of octanol-water (POW) number. An HPLC method is used to estimate octanol-water partition. An Agilent 1100 HPLC system is used with an eclipse XDB C18 column 4.6×250 mm with a mobile phase of 60% acetonitrile/40% 25 mM potassium phosphate buffer at pH 7.4 with a flow rate of 0.8 ml per min. and the eluent is monitored at 250 nm. The standards used are benzyl alcohol, acetophenone, benzophenone, naphthalene, diphenyl ether and dibenzyl with known POW of […] respectively. Sodium dichromate is used to evaluate time zero which is 2.5 min and the retention times for the standards are 3.9, 5.4, 10.6, 14, 18.7 and 19.8 min, respectively. The k value is calculated by the formula of k=(trt−t0)/t0. Linear regression of log k vs. log POW gives a straight line with r^2=0.966. This graph is used to evaluate the POW value of the epothilone analogs.
# CCRF-CEM [8] = conditions: human, CCRF-CEM leukemic cells, 72 h
# Method: as §3, §4, §5
# [9] = preliminary metabolic degradation studies
# [10] = Table 1-3, read-out: IC50, C/Taxol
# [11] = Table 1-4, read-out: IC50, CCRF-CEM/Taxol
compound,measurement,setting,value
"C/C1=C/C[C@@H](/C(C)=C/c2csc(C)n2)OC(=O)C[C@H](O)C(C)(C)C(=O)[C@H](C)[C@@H](O)[C@@H](C)/C=C/C1 [Compound 28, trans-9,10-dehydro-12,13-desoxyepothilone B]",Water solubility relative to other epothilones,Solubility in water,greatly increased water solubility
same,solubility,Solubility in water,27 µg/mL
same,half-life,in vitro [1]; mouse plasma,1.4 ± 0.1 h
same,Therapeutic effect on MX-1 xenograft,[2],tumor disappearance
same,IC50,"CCRF-CEM/Taxol; Table 1-2, read-out: IC50 (μM), CCRF-CEM/Taxol",0.0017 µM
same,IC50,CCRF-CEM/Taxol; [10],0.0012 µM
same,IC50,CCRF-CEM/Taxol; [11],0.0012 µM
same,IC50 in vitro (FIG. 94),CCRF-CEM [3],sub-nanomolar
same,IC50,"CCRF-CEM [3]; XTT assay following 72 h inhibition, Table 1-2",0.0014 µM
same,IC50,"CCRF-CEM [3]; XTT assay following 72 h inhibition, Table 1-3",0.0009 µM
same,IC50,"CCRF-CEM [3]; XTT assay following 72 h inhibition, Table 1-4",0.0009 µM
same,Potency in direct comparison with dEpoB (1),CCRF-CEM [3]; tumor cell lines of Table 1-2,nearly three times more potency
same,Enhancement of drug potency in xenograft experiments with MX-1 tumors,[4],ca. 10 fold
same,half-life,in vitro [5]; pooled human liver S9 fraction,4.9 ± 0.7 h
same,Relative therapuetic index at MTD,[6]; graded at maximal tolerated dose,++++
same,Antitumor effect in human solid tumor xenograft models,"[6]; mouse, in vivo",strongly suppressed tumor growth
same,Dose accomplishing complete suppression of tumor in a variety of xenografts,"[6]; mouse, in vivo",3 mg/kg
same,Efficacy compared with dEpoB,"[6]; mouse, in vivo",three times more efficacious
same,Maximal b.w. % drop without death,"[6]; mouse, in vivo",29%
same,Therapeutic dose regimen for Q2D 6 hr-iv infusion,"[6]; mouse, in vivo",3 to 4 mg/kg
same,chromatographic logP,[7],3.3
same,IC50,CCRF-CEM [8],0.9 ± 0.4 nM
C/C(=C\c1csc(C)n1)[C@@H]1C[C@H]2O[C@@]2(C)C/C=C/[C@H](C)[C@H](O)[C@@H](C)C(=O)C(C)(C)[C@@H](O)CC(=O)O1 [Compound 50],IC50,CCRF-CEM/Taxol; [11],0.0802 µM
same,IC50,"CCRF-CEM [3]; read-out: IC50, CCRF-CEM, XTT assay following 72 h inhibition, Table 1-4",0.0134 µM
same,Potency compared with EpoB (51),CCRF-CEM [3],much lower activity
same,Potency compared with EpoB (51),CCRF-CEM [3]; listed as unnatural α-oxirane,virtually devoid of activity
"C/C(=C\c1csc(C)n1)[C@@H]1C/C=C(/C(F)(F)F)CCC[C@H](C)[C@H](O)[C@@H](C)C(=O)C(C)(C)[C@@H](O)CC(=O)O1 [Compound 2, 26-trifluoro-12,13-desoxyepothilone B]",solubility,Solubility in water,8 µg/mL
same,half-life,in vitro [1]; plasma,1.1 ± 0.117 h
same,"Slower drug degradation in murine plasma as compared to dEpoB (1), factor",exposure to murine plasma,by a factor of seven
same,IC50,CCRF-CEM/Taxol; [10],0.018 µM
same,IC50,CCRF-CEM [3]; human,0.0093 ± 0.0052 µM
same,IC50,"CCRF-CEM [3]; read-out: IC50, CCRF-CEM(C), XTT assay following 72 h inhibition, Table 1-3",0.0041 µM
same,half-life,in vitro [5]; s9,1.6 ± 0.4 h
same,Maximal b.w. % drop without death,"[6]; mouse, in vivo",22%
same,Therapeutic dose regimen for Q2D 6 hr-iv infusion,"[6]; mouse, in vivo",15 to 20 mg/kg
same,chromatographic logP,[7],4.1
"CC1=C/C[C@@H](/C(C)=C/c2csc(C)n2)OC(=O)C[C@H](O)C(C)(C)C(=O)[C@H](C)[C@@H](O)[C@@H](C)C\C=C\1 [Compound 6, epothilone 490, reference compound]",IC50,CCRF-CEM [3]; read-out: CCRF-CEM (IC50 (μM)),0.02 µM
"C/C(=C\c1csc(CO)n1)C1C/C=C(/C(F)(F)F)C/C=C/[C@H](C)[C@H](O)[C@@H](C)C(=O)C(C)(C)[C@@H](O)CC(=O)O1 (some centres unmarked) [Compound 59, 26-trifluoro-9,10-dehydro-dEpoF]",Water solubility relative to other epothilones,Solubility in water,greatly increased water solubility
"C/C(=C\c1csc(C)n1)[C@@H]1C/C=C(/C(F)(F)F)C/C=C/C[C@H](C)[C@H](O)[C@@H](C)C(=O)C(C)(C)[C@@H](O)CC(=O)O1 [Compound 19, 27-F3-[17]ddEpoB]",Degradation on exposure to human plasma,[9],remained mostly intact
same,Degradation on exposure to nude mouse plasma,preliminary metabolic degradation studies,remained mostly intact
same,IC50,"CCRF-CEM [3]; read-out: CCRF-CEM (IC50 (μM)), XTT assay following 72 h inhibition, Table 1-1",0.068 µM
